In this assay the test system is αSynA53T-YFP cells (HEK293T). In words: Cell assay for seeded α-synuclein aggregation (FIG. 19). The class given is cell-based, human. Conditions: seeded with 30 nM PFF oligomers, day 3, two-stage transfection. As to the method:
A construct encoding full-length A53T-mutated human α-syn and fused with YFP at the C-terminus was synthesized and introduced into the pMK-RQ expression vector (GeneArt; Thermo Fisher Scientific, USA). The α-synA53T-YFP construct was sub-cloned using the restriction sites NheI (5′) and NotI (3′) in the vector pIRESpuro3 (Clontech; Takara Bio, JPN). HEK293T cells (American Type Culture Collection) were cultured in high-glucose Dulbecco's Modified Eagle's Medium (DMEM; Sigma-Aldrich, USA) which had 10% fetal calf serum (Sigma-Aldrich, USA), 50 units/ml penicillin, and also 50 μg/ml streptomycin (Sigma-Aldrich, USA) added thereto. The cells were cultured at 37° C. in a humidified atmosphere with 5% CO2.
The cells plated in DMEM were transfected with Lipofectamine 2000 (Invitrogen; Thermo Fisher Scientific, USA). Stable cells were selected in DMEM with 1 μg/ml puromycin (EMD Millipore, USA). Monoclonal cell lines were produced by means of fluorescence-activated cell sorting of a polyclonal cell population in 96-well plates using a MoFlo XDP cell sorter (Beckman Coulter, USA). […]
The plates were then incubated at 37° C. in a humidified atmosphere with 5% CO2. On the third day, the cells were imaged in an IN Cell Analyzer 6500HS system (Cytiva, USA) using the blue and green fluorescence channels, and analyzed by the IN Carta Image Analysis software (Cytiva, USA) which had been used to establish an algorithm for identifying intracellular aggregates in living cells. Four wells were used for each condition and 16 images were recorded per well and analyzed by a fully-automated algorithm in order to prevent distortions. […]
In order to validate the inhibitory effect of SVD-1a in cells, use was made of the α-synA53T-YFP cell system which stably expresses human α-syn with the familial A53T mutation, fused with YFP, in HEK293T cells, and the fluorescence-based detection of aggregates makes it possible to clearly show the strongly fluorescent spots within the cells against the background, intracellularly after seeding with PFF oligomers. […] Panels C, F and I show αSynA53T-YFP fluorescence. […]

This note sets out measurements from patent US20250346629A1, “USE OF D-ENANTIOMERIC PEPTIDE LIGANDS OF MONOMERIC ALPHA-SYNUCLEIN FOR THE THERAPY OF VARIOUS SYNUCLEINOPATHIES” (PRIAVOID GMBH, priority 2021, published 2025).

Square brackets hold non-standard residues; d marks the D form. Peptide text beside a SMILES is read from it.

On to `CC[C@@H](C)[C@@H](NC(=O)[C@@H](Cc1c[nH]cn1)NC(=O)[C@@H](CCC(=O)O)NC(=O)[C@@H](CCC(N)=O)NC(=O)[C@@H](Cc1c[nH]c2ccccc12)NC(=O)[C@@H](Cc1ccc(O)cc1)NC(=O)[C@H](NC(=O)[C@@H](CCC(=O)O)NC(=O)[C@@H](Cc1c[nH]cn1)NC(=O)[C@H](NC(=O)[C@H]1CCCN1C(=O)[C@@H](CC(C)C)NC(=O)[C@H](N)CCCNC(=N)N)[C@H](C)O)[C@H](C)O)C(=O)N[C@H](Cc1c[nH]c2ccccc12)C(=O)N[C@H](Cc1c[nH]cn1)C(=O)N[C@H](C)C(=O)N[C@H](CCCNC(=N)N)C(=O)N[C@H](CCCNC(=N)N)C(=O)N[C@H](CCCNC(=N)N)C(=O)N[C@H](CCCNC(=N)N)C(=O)N[C@H](CCCNC(=N)N)C(N)=O` [SVD-1a, rlpthetywqehiwharrrrr] (H-[dR][dL][dP][dT][dH][dE][dT][dY][dW][dQ][dE][dH][dI][dW][dH][dA][dR][dR][dR][dR][dR]-NH2), for which the “inhibition of α-syn aggregation in cells” value is listed as “inhibited α-syn aggregation in αSynA53T-YFP cells in a dose-dependent manner”.
